Experimental data as given in patent US8288158B2, “Stem cells modified to facilitate threonine catabolism” (Board of Regents, The University of Texas System, priority 2009, dated 2012).

Legend:
3T3 cells = experiment: 3T3 cell growth with 3-HNV; type: cell-based
Description: (§1) Instead of the normal, 400 uM level of glycine, threonine-deficient medium was supplemented with 4 mM glycine. ES cells subjected to this threonine-deficient, glycine-enriched medium grew no better than those subjected to the threonine drop out medium itself. It is possible that ES cells are unable to deliver the supplemented glycine to mitochondria in order to feed the glycine cleavage system and folate charging. Alternatively, it is also possible that TDH-mediated production of acetyl-CoA is equally important to the HFB-like metabolic state. This alternative interpretation is consistent with the observation that among all metabolites that decline in abundance most precipitously as a function of the conversion of ES cells into differentiating embryoid bodies, acetyl-CoA was second only to the purine intermediate AICAR. In order to investigate these alternatives, we employed 3-hydroxynorvaline (3-HNV), a synthetic variant of threonine containing an extra carbon atom. It is known that the TDH enzyme can […] this threonine analog, yet instead of producing glycine and acetyl-CoA, catabolism of 3-HNV yields glycine and propionyl-CoA (15). ES cells were cultured in either normal or threonine-deficient medium supplemented with varying levels of 3-HNV. […] The inhibitory effect of 3-HNV was not observed on the growth of HeLa, MEF or 3T3 cells.

morula-staged embryos = experiment: Early mouse embryo development (morula to blastocyst) in culture with 3-HNV; type: cell-based
Description: The availability of 3-HNV as a cell-permeable threonine analog facilitated experiments using living mouse embryos. Before testing the effects of 3-HNV on early mouse embryo development, in situ hybridization and immunohistochemical staining assays were performed to investigate the expression pattern of both TDH mRNA and TDH enzyme (16). […] Knowing that the ICM represents the in vivo source of ES cells (17), we hypothesized that the early development of mouse embryos might be inhibited by 3-HNV. […] These studies indicate that ICM cells of the early mouse embryo, like cultured mouse ES cells, are critically dependent upon threonine catabolism.
• 1. B. Alberts et al., Molecular Biology of the Cell (Garland Publishing, Inc., New York, ed. March, 2007), pp. 1-1392. • 2. A. G. Smith, Annu. Rev. Cell Dev. Biol. 17, 435 (2001). • 3. B. P. Tu et al., Proc. Natl. Acad. Sci. U.S.A. 104, 16886 (2007). • 4. L. Warren, J. M. Buchanan, J. Biol. Chem. 229, 613 (1957). • H. Weissbach, A. Peterkofsky, B. G. Redfield, H. Dickerman, J. Biol. Chem. 238, 3318 (1963). • 6. E. A. Phear, D. M. Greenberg, J. Am. Chem. Soc. 79, 3737 (1957). • 7. Total RNA was extracted with RNA STAT-60 (Tel-Test) and converted into cDNA with oligo(dT) primer using the SuperScript first-strand synthesis kit (Invitrogen). PCR was performed on an AB 7900HT fast real-time PCR system (Applied Bioscience) using a TDH specific primer pair. • 8. R. A. Dale, Biochim. Biophys. Acta. 544, 496 (1978). • 9. TDH cDNA with an in-frame Flag tag sequence fused to the carboxyl terminus of the enzyme was cloned into mammalian expression vector pcDNA3.1 at EcoR1/Xho1 sites. The resultant vector was transfected into 293T cells using Lipofectamine 2000 reagent (Invitrogen). Stable transformants were selected in media containing 500 μg/ml G418 and characterized by western blotting analysis using anti-Flag antibody (Sigma). To extract mitochondrial protein, cells were homogenized in the buffer containing 10 mM Tris-HCl (pH 7.5), 250 mM sucrose and 2 mM EDTA on ice with a glass pestle douncer. Mitochondria were isolated from homogenates through a two-step differential centrifugation procedure at 600 and 11,000 g for 10 m each at 4° C. Mitochondrial protein was then extracted in 100 mM potassium phosphate buffer (pH 7.4) containing 0.1% NP-40, 10 mM DTT and 1× protease inhibitor cocktail (Sigma). TDH activity was determined by measuring the rate of formation of NADH at 25° C. The assay mixture contained 100 mM Tris-HCl (pH 8.0), 25 mM L-threonine, 5 mM NAD and 25 mM NaCl in a final volume of […] The reaction was initiated by the addition of mitochondrial protein extract, and absorbance of the reaction mixture at 340 nM was recorded continuously on a microplate reader. • 10. […]

MEF cells = experiment: MEF cell growth with 3-HNV; type: cell-based, mouse
Description: as §1

HeLa cells = experiment: HeLa cell growth with 3-HNV; type: cell-based
Description: as §1

mouse ES cells = experiment: ES cell colony formation in normal or threonine-deficient medium with 3-HNV; type: cell-based; conditions: varying levels of 3-HNV
Description: Instead of the normal, 400 uM level of glycine, threonine-deficient medium was supplemented with 4 mM glycine. ES cells subjected to this threonine-deficient, glycine-enriched medium grew no better than those subjected to the threonine drop out medium itself. It is possible that ES cells are unable to deliver the supplemented glycine to mitochondria in order to feed the glycine cleavage system and folate charging. Alternatively, it is also possible that TDH-mediated production of acetyl-CoA is equally important to the HFB-like metabolic state. This alternative interpretation is consistent with the observation that among all metabolites that decline in abundance most precipitously as a function of the conversion of ES cells into differentiating embryoid bodies, acetyl-CoA was second only to the purine intermediate AICAR. In order to investigate these alternatives, we employed 3-hydroxynorvaline (3-HNV), a synthetic variant of threonine containing an extra carbon atom. […]
• 1. […] TDH activity was determined by measuring the rate of formation of NADH at 25° C. The assay mixture contained 100 mM Tris-HCl (pH 8.0), 25 mM L-threonine, 5 mM NAD and 25 mM NaCl in a final volume of […] The reaction was initiated by the addition of mitochondrial protein extract, and absorbance of the reaction mixture at 340 nM was recorded continuously on a microplate reader. • 10. […]

CCC(O)[C@H](N)C(=O)O (stereo partly drawn) [3-HNV, 3-hydroxynorvaline]
inhibitory effect on cell growth (3T3 cells): not observed
conversion of morula-staged embryos into cavitated blastocysts (morula-staged embryos; 100 uM 3-HNV): A more modest degree of inhibition
conversion of morula-staged embryos into cavitated blastocysts (morula-staged embryos; 300 uM 3-HNV): blocked the conversion of morula-staged embryos into cavitated blastocysts
conversion of morula-staged embryos into cavitated blastocysts (morula-staged embryos; 1 mM 3-HNV): blocked the conversion of morula-staged embryos into cavitated blastocysts
embryo development with threonine supplementation (morula-staged embryos; 1 mM 3-HNV, medium supplemented by 4 mM threonine): Complete rescue of normal development
inhibitory effect on cell growth (MEF cells): not observed
inhibitory effect on cell growth (HeLa cells): not observed
ES cell colony formation (mouse ES cells; normal culture medium): inhibited ES cell colony formation
complementation of the absence of threonine (ES cell colony formation) (mouse ES cells; threonine-deficient medium): fail to complement the absence of threonine
